“And” between values parts separate entries of the source, which are not always exact repeats. Identical values can stand only once. Like-named read-outs stand apart in the source and are kept apart here. Marks after values point to notes of the source that are not given here.
Legend:
[1] = test system: diverse tumour cell lines; assay: proliferation of diverse tumour cell lines; assay type: cell-based; conditions: range over cell lines; read-out: IC50, blocks proliferation of diverse tumour cell lines
tumour = assay: xenograft models, tumour growth; conditions: in vivo
[2] = test system: rapidly proliferating cells; assay: cell cycle arrest and apoptosis; assay type: cell-based
[3] = design: species or system human; conditions: in vivo
Experimental: Cardiac safety was analyzed by extensive ECG monitoring (>3.000 ECG's assessed) in combination with PK assessments of Bel. Based on analyses by a central laboratory, the main findings (mean changes from baseline at the different dose-levels and for Bel alone and in combination with FU) were: • Heart rate, changes of −1 to +11 bpm, without outliers or any dose relationship. • PR duration, changes of −8 to +2 ms, without outliers or any dose relationship. • QRS duration, changes of −3 to +4 ms, without outliers or any dose relationship. • QTcF duration, changes of −4 to +18 ms, without any dose relationship. One outlier pat with a new QTcF value >500 ms was identified at dose-level 1000/750 (max post-infusion QTcF value 522 ms from pre-infusion value of 487 ms).
(§1) Phase I dose-escalation, multi-center study with the objectives to assess: • maximum tolerated dose and dose limiting toxicities (DLT) of Bel in combination with FU • impact of Bel on expression of TS, dihydropyrimidine dehydrogenase (DPD), and p21, in tumor and non-tumor surrogate tissue (peripheral blood mononuclear cells; PBMC) • preliminary anti-tumor activity of Bel in combination with FU • impact of Bel on ECG parameters • pharmacokinetics (PK) of Bel when given in combination with FU

[4] = Phase I study: pharmacokinetics of Bel; assay type: in vivo, human; conditions: for half-life: read-out: T1/2, group mean (±SD) (converted)
Source text: as §1
Treatment cycles of 21 days included Bel alone in cycle 1, and Bel in combination with FU in all subsequent cycles (FIG. 4). Treatment was to continue until significant treatment-related toxicity or progressive disease.

[5] = test system: thymidylate synthase (TS); assay: TS mRNA by RTQ-PCR in tumor biopsies; assay type: in vivo, human; conditions: Bel monotherapy, Bel 1000 mg/m^2/day, patients with pre- and post-Bel samples
Experimental: (§2) DLTs, i.e. grade ¾ non-hematologic toxicities and grade 4 neutropenia or thrombocytopenia, were determined in cycles 1 and 2. Safety was assessed by NCI CTC (v. 3) and efficacy by RECIST criteria. Expression of TS, DPD, and p21 mRNA was measured by RTQ-PCR in PBMC (20 patients at baseline, and pre-dosing, 6 and 24-hours post-dosing, on days 1 and 4 in cycle 1) and in tumor biopsies (8 patients at baseline and once on days 4 or 5 in cycle 1). Results were expressed as gene expression relative to actin (i.e. TS/Actin Relative Gene Expression, DPD/Actin Relative Gene Expression, and p21/Actin Relative Gene Expression).

[6] = test system: dihydropyrimidine dehydrogenase (DPD); assay: DPD mRNA by RTQ-PCR in tumor biopsies; assay type: in vivo, human
Experimental: as §2

p21 [7] = assay: p21 mRNA by RTQ-PCR in tumor biopsies; assay type: in vivo, human; conditions: for patients with up-regulation of p21 in tumor tissue: Bel monotherapy, Bel 1000 mg/m^2/day
Experimental: as §2

[8] = test system: thymidylate synthase (TS); assay: TS mRNA by RTQ-PCR in PBMC; assay type: in vivo, human; conditions: for TS maximum percentage change versus baseline: one value per patient
Experimental: as §2

[9] = test system: dihydropyrimidine dehydrogenase (DPD); assay: DPD mRNA by RTQ-PCR in PBMC; assay type: in vivo, human; conditions: for DPD maximum percentage change versus baseline: one value per patient
Experimental: as §2

p21 [10] = assay: p21 mRNA by RTQ-PCR in PBMC; assay type: in vivo, human; conditions: for P21 maximum percentage change versus baseline: one value per patient
Experimental: as §2

[11] = test system: TS, DPD, and p21 expression in PBMC; assay: '2 out of 3' TS/DPD/p21 expression pattern in PBMC versus clinical outcome; assay type: in vivo, human
Source text: Among the 20 patients where an attempt was made to analyze TS, DPD, and p21 in PBMC, 2 patients seemed to have a clearly favorable clinical outcome (patients 101-3 and 102-14 with treatment durations on Bel/FU of 8 and 14 cycles, respectively; see Tables 4 and 6), i.e. a 10% favorable outcome rate without selection.
If selection of patients for treatment with Bel/FU would have been done after an initial-dose of Bel and analyses of TS, DPD, and p21 expression in PBMC 6-hours post Bel dosing, the favorable outcome rate could have been increased to between 33% and 67% by selection of patients based on a “2 out of 3” positive expression pattern (positive assumed to be TS down-, DPD down-, and p21 up-regulation in comparison to a pre-treatment value).
Selection based on one single sample taken 6-hours post Bel dosing (Table A): 6 (30%; patients 101-3/5/6/7, 102-6/14) of the 20 patients have “2 out of 3” markers showing a favorable expression change after Bel dosing, and 2 (33%) of the 6 patients have clearly favorable clinical outcomes. Note, also patients 101-6 and 101-7 with a “2 out of 3” pattern, but not counted as having “clearly favorable clinical outcome” have longer than median treatment durations on Bel/FU (i.e. 4 cycles; see Table 4).
Selection based on mean of two samples taken 6-hours post Bel dosing (Table B): 3 (15%; patients 101-3, 102-6/14) of the 20 patients have “2 out of 3” markers showing a favorable expression change after Bel dosing, and 2 (67%) of the 3 patients have clearly favorable clinical outcomes.
as §2

[12] = test system: thymidylate synthase (TS); conditions: HCT116 colon cancer cells, in vitro; cited from earlier work
[13] = belinostat 1000 mg/m^2/day alone, Cycle 2 Day 1, n = 14
[14] = belinostat 1000 mg/m^2/day in combination with FU, Cycle 2 Day 5, n = 13
[15] = patient tumor samples, cycle 1 day 4 or 5, Bel 1000 mg/m^2/day, one value per patient, listed as belinostat
[16] = PXD 600, one value per patient, listed as PXD
[17] = PXD 600, one value per patient, listed as PXD, with FU dose 250
[18] = PXD 600, one value per patient, listed as PXD, with FU dose 1000
[19] = PXD 1000, one value per patient, listed as PXD
[20] = PXD 1000, one value per patient, listed as PXD, with FU dose 250
[21] = PXD 1000, one value per patient, listed as PXD, with FU dose 1000
[22] = cycle 1, Belinostat Dose 300 mg/m^2/day
[23] = cycle 1, Belinostat Dose 600 mg/m^2/day
[24] = cycle 1, Belinostat Dose 1000 mg/m^2/day
[25] = PXD 1000, one value per patient, listed as PXD, with FU dose 500

## O=C(/C=C/c1cccc(S(=O)(=O)Nc2ccccc2)c1)NO [PXD-101]
[1]
  IC50: 80 to 2430 nM
tumour
  tumour growth in xenograft models: slows tumour growth
[2]
  cell cycle arrest and apoptosis: causes cell cycle arrest and apoptosis
[3]; human
  max post-infusion QTcF value of the one outlier pat: 522 ms
[3]
  effect on heart rate, AV conduction, cardiac depolarization, morphology or cardiac re-polarization: no clear signal of any clinically relevant effect
[4]; [13]
  CL, group mean (±SD): 37,580 (10,893) ml/hr/m^2
  Vss, group mean (±SD): 16,528 (4,918) ml/m^2
  Vz, group mean (±SD): 58,362 (26,136) ml/m^2
[4]; [14]
  CL, group mean (±SD): 30,141 (13,824) ml/hr/m^2
  Vss, group mean (±SD): 13,538 (7,253) ml/m^2
  Vz, group mean (±SD): 53,316 (29,753) ml/m^2
[4]; day 1 across all dose cohorts (n=22)
  PK linearity: linear PK
[4]; human, in vivo, intravenous, 1000 mg/m2, belinostat 1000 mg/m^2/day alone, Cycle 2 Day 1, n = 14
  half-life: 1 h
[4]; human, in vivo, intravenous, belinostat 1000 mg/m^2/day in combination with FU, Cycle 2 Day 5, n = 13, read-out: AUC0-∞, group mean (±SD)
  AUC(0-inf): 33300 ng·h/mL
[4]; human, in vivo, intravenous, belinostat 1000 mg/m^2/day in combination with FU, Cycle 2 Day 5, n = 13, read-out: AUCall, group mean (±SD)
  AUC: 33200 ng·h/mL
[4]; human, in vivo, intravenous, belinostat 1000 mg/m^2/day in combination with FU, Cycle 2 Day 5, n = 13, read-out: Cmax, group mean (±SD)
  Cmax: 49500 ng/mL
[4]; human, in vivo, intravenous, belinostat 1000 mg/m^2/day in combination with FU, Cycle 2 Day 5, n = 13
  half-life: 1.2 h
[5]; listed as Bel
  patients with TS down-regulated in tumor tissue: 4 of 4
[5]; listed as belinostat
  patients with TS down-regulated in tumor tissue: Four of 4
[6]; Bel monotherapy, Bel 1000 mg/m^2/day
  DPD expression change in tumor tissue: minor changes
[6]; [15]
  DPD Change vs baseline: ≈
p21 [7]; listed as Bel
  patients with up-regulation of p21 in tumor tissue: Three of 4
p21 [7]; listed as belinostat
  patients with up-regulation of p21 in tumor tissue: 3 of the 4
p21 [7]; [15]
  p21 Change vs baseline: ≈
[8]; PXD 300, one value per patient
  6mean-TS, Change from baseline at 6 h based on mean of d1 + d4: 410%
  D1-6: TS, Change from baseline at 6 h day 1: 486%
[8]; [16]
  D1-6: TS, Change from baseline at 6 h day 1: 62% and −87% and 144%
[8]; [17]
  6mean-TS, Change from baseline at 6 h based on mean of d1 + d4: 126% and 144%
[8]; [18]
  6mean-TS, Change from baseline at 6 h based on mean of d1 + d4: −65%
[8]; [19]
  D1-6: TS, Change from baseline at 6 h day 1: −51% and 63% and −21% and 88% and −14% and 274% and 238%
[8]; [20]
  6mean-TS, Change from baseline at 6 h based on mean of d1 + d4: −51% and 54% and 286% and 169% and 182%
[8]; [21]
  6mean-TS, Change from baseline at 6 h based on mean of d1 + d4: 51% and 142%
[8]; [22]
  TS maximum percentage change versus baseline: 486%
[8]; [23]
  TS maximum percentage change versus baseline: 190% and −87% * and 144%
[8]; [24]
  TS maximum percentage change versus baseline: 238% and −51% * and 63% and 594% and 250% and 116% and 274% and −67% * and 214%
[9]; PXD 300, one value per patient
  6mean-DPD, Change from baseline at 6 h based on mean of d1 + d4: 131%
  D1-6: DPD, Change from baseline at 6 h day 1: 136%
[9]; [16]
  D1-6: DPD, Change from baseline at 6 h day 1: 30% and −87% and −56% and −13%
[9]; [17]
  6mean-DPD, Change from baseline at 6 h based on mean of d1 + d4: −22% and −37% and −13%
[9]; [18]
  6mean-DPD, Change from baseline at 6 h based on mean of d1 + d4: −59%
[9]; [19]
  D1-6: DPD, Change from baseline at 6 h day 1: −55% and −57% and 78% and −62% and −28% and 373% and 14% and 6% and 160% and −20% and 547%
[9]; [20]
  6mean-DPD, Change from baseline at 6 h based on mean of d1 + d4: −55% and 8% and 124% and −22% and 267% and 372%
[9]; [25]
  6mean-DPD, Change from baseline at 6 h based on mean of d1 + d4: 278% and 56%
[9]; [21]
  6mean-DPD, Change from baseline at 6 h based on mean of d1 + d4: 15% and 73% and −20%
[9]; [22]
  DPD maximum percentage change versus baseline: 136%
[9]; [23]
  DPD maximum percentage change versus baseline: −74% * and −87% * and −73% * and −13% *
[9]; [24]
  DPD maximum percentage change versus baseline: 547% and 91% and 220% and 169% and −83% * and 563% and 373% and 98% and −60% * and 160% and −20% * and 62%
p21 [10]; PXD 300, one value per patient
  6mean-p21, Change from baseline at 6 h based on mean of d1 + d4: 41%
  D1-6: p21, Change from baseline at 6 h day 1: 35%
p21 [10]; [16]
  D1-6: p21, Change from baseline at 6 h day 1: −9% and 31% and −48%
p21 [10]; [17]
  6mean-p21, Change from baseline at 6 h based on mean of d1 + d4: −16% and −55%
p21 [10]; [18]
  6mean-p21, Change from baseline at 6 h based on mean of d1 + d4: 15%
p21 [10]; [19]
  D1-6: p21, Change from baseline at 6 h day 1: 272% and −54% and 115% and −25% and 16% and 43% and 21% and 13% and −11% and 74% and 68%
p21 [10]; [20]
  6mean-p21, Change from baseline at 6 h based on mean of d1 + d4: 272% and −55% and 155% and −17% and 44% and 32%
p21 [10]; [25]
  6mean-p21, Change from baseline at 6 h based on mean of d1 + d4: 21% and −25%
p21 [10]; [21]
  6mean-p21, Change from baseline at 6 h based on mean of d1 + d4: −35% and 23% and 74%
p21 [10]; [22]
  P21 maximum percentage change versus baseline: 48% *
p21 [10]; [23]
  P21 maximum percentage change versus baseline: 43% * and 88% * and −86%
p21 [10]; [24]
  P21 maximum percentage change versus baseline: 68% * and 972% * and −72% and 715% * and 62% * and 156% * and 43% * and −71% and −83% and −86% and 74% * and −47%
[11]; 6 h, mean of d1 + d4
  patients with '3 of 3 correct' marker pattern: 2 pts
[11]; 6 h, mean of d1 + d4, of 20 patients
  patients with '2 of 3 correct' marker pattern (down TS-down DPD-up p21): 3 pts
[11]; 6 h day 1
  patients with '3 of 3 correct' marker pattern: 2 pts
[11]; 6 h day 1, of 20 patients
  patients with '2 of 3 correct' marker pattern (down TS-down DPD-up p21): 6 pts
[12]
  expression of thymidylate synthase (TS): reduce the expression

Source: patent US20100190694A1, “Methods for identifying patients who will respond well to cancer treatment” (priority 2009, published 2010)
